Data on 15 compounds can be found in PubChem BioAssay (NCI).

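Cells were grown in 96-well plates and exposed to each compound for 48 hours at five concentrations; endpoints were interpolated linearly between bracketing concentrations, or set to the highest concentration if not reached. Abbreviation: GI50, concentration required for 50% inhibition of growth. TGI: total growth inhibition.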

Test in all cases: growth of human tumour cells (NCI), 48 h
Test [1] concerns HCC-2998 colon.
Test [2] deals with HL-60(TB) leukemia.
Test [3] concerns HOP-92 NSCLC.
The subject of test [4] is NCI-H23 lung.
Test [5] has as its system NCI-H460 lung.
For test [6], the system named is OVCAR-3 ovarian.
Test [7] has as its system PC-3 prostate.
The test system of test [8] is SF-295 CNS.
Test [9] relates to SK-MEL-5 melanoma.
In test [10] the test system is SK-OV-3 ovarian.

Regarding `COc1cccc(CC(C)=C(c2ccc(OCCN3CCCCC3)cc2)c2ccc(OCCN3CCCCC3)cc2)c1`, the GI50 was 1.74 µM in [1]; 1.78 µM in [2]; 0.612 µM in test [3]; 2.13 µM in test [4]; 1.96 µM in [5]; 1.95 µM in test [6]. Besides, the GI50 was 1.83 µM in test [7], 2.42 µM in [8], 2.23 µM in test [9] and 2.2 µM in test [10]. The TGI in test [1] came out at 3.72 µM; in [2], 4.12 µM; in [3], 2.59 µM; in test [4], 4.47 µM; in test [5], 3.93 µM; in test [6] it was 4.04 µM. For the same compound, the TGI in [7] turned out to be 3.75 µM; in test [8], 4.82 µM; in test [9], 4.17 µM; in test [10] it was 4.23 µM.

Turning to `Cc1ccc(/C=N/Nc2nc(Nc3ccccc3)nc(-n3nc(C)cc3C)n2)cc1`, the GI50 in test [1] is 2.71 µM; in test [2], 2.51 µM; in [3] it was 2.28 µM; in [4], 5.41 µM; in test [5] it was 2.11 µM; in test [6] it was 3.2 µM. Moreover, the GI50 was 2.67 µM in test [7], 2.74 µM in test [8], 1.77 µM in test [9] and 11.8 µM in [10]. Also, the TGI in test [1] came out at 6.6 µM; in test [2], 84.8 µM; in test [3], 10.9 µM; in test [4], 24.3 µM; in test [5] it was 8.91 µM; in test [6] it was 43.6 µM. The TGI is 23.6 µM in test [7], 14.4 µM in test [8], 7.44 µM in test [9] and over 100 µM in test [10].

`CC1=C2[C@@H](CC1)[C@]1(C)O[C@@](C(C)C)(C[C@H]1OC(=O)CO)[C@H]2OC(=O)C1CC1c1ccccc1` (stereo partly drawn): the GI50 in test [1] was 13.5 µM; in test [2] it was 15 µM; in [3], 11.8 µM; in test [4], 14.2 µM; in test [5] it was 14.5 µM; in test [6] it was 13 µM. Also, the GI50 was 7.36 µM in [7], 12 µM in [8], 15.2 µM in test [9] and 16.4 µM in test [10]. Besides, the TGI in [1] stood at 29.4 µM; in test [2] it was 38 µM; in test [3] it was 24.6 µM; in test [4], 32.4 µM; in test [5] it was 32.2 µM; in test [6], 26.4 µM. Besides, the TGI is 21.6 µM in test [7], 24.7 µM in [8], 28.8 µM in test [9] and 30.7 µM in [10].

Consider `COc1ccc2c(c1)c(-c1nc(-c3c[nH]c4ccncc34)cs1)cn2C`, for which the GI50 in test [1] was 1.85 µM; in test [2], 1.68 µM; in test [3] it was 1.64 µM; in [4] it was 1.82 µM; in test [5], 1.73 µM; in test [6] it was 1.88 µM. Further, the GI50 in test [7] was 1.6 µM; in test [8], 1.69 µM; in test [9], 1.65 µM; in test [10], 1.88 µM. The TGI was found to be 3.35 µM in [1]; 3.5 µM in test [2]; 3.33 µM in [3]; 3.39 µM in test [4]; 3.31 µM in test [5]; 3.34 µM in test [6]. In addition, the TGI in test [7] worked out at 3.06 µM; in [8], 3.13 µM; in test [9], 3.02 µM; in [10] it was 3.37 µM.

For the compound `CNC(=O)c1c(NC(=O)c2ccc(C(C)(C)C)cc2)sc2c1CCC(=O)C2`, the GI50 is 0.581 µM in test [1]; 0.261 µM in test [2]; 0.358 µM in test [3]; 0.266 µM in [4]; 0.352 µM in test [5]; 0.444 µM in [6]. The GI50 was 0.0797 µM in test [7], 0.334 µM in [8], 0.349 µM in test [9] and 1.4 µM in test [10]. The TGI in test [1] is 2.04 µM; in test [2] it was 1.58 µM; in test [3], 2.03 µM; in test [4] it was 1.24 µM; in [5] it was 1.47 µM; in [6], 1.6 µM. In addition, the TGI in test [7] was determined as 1.35 µM; in test [8], 1.35 µM; in test [9], 1.33 µM; in [10], 6.17 µM.

For `CC1=C(SCCC(=O)OC(C[Se]C2=C(C)C(=O)c3ccccc3C2=O)C(=O)NCCCCCC(=O)OCc2ccccc2)C(=O)c2ccccc2C1=O` (stereo not drawn), the GI50 in [1] was 6.52 µM; in test [2], 3.09 µM; in [3] it was 2.7 µM; in [4], 2.76 µM; in test [5], 1.9 µM; in [6], 5.01 µM. Further, the GI50 in [7] was 2.55 µM; in [8], 2.49 µM; in [9], 3.81 µM; in test [10], 7.1 µM. Moreover, the TGI in test [1] is 18.5 µM; in test [2], 8.52 µM; in [3], 7.89 µM; in [4], 7.84 µM; in [5] it was 4.54 µM; in test [6] it was 18.2 µM. The TGI in test [7] was 9.13 µM; in [8], 8.7 µM; in test [9] it was 14.9 µM; in [10], 19.7 µM.

With `Nc1ccc(C(=O)N/C(=C\c2cccc([N+](=O)[O-])c2)c2nc3[nH]c(=S)[nH]c(=O)c3[nH]2)cc1`, the TGI is over 100 µM in [1]; over 100 µM in [2]; 64.9 µM in test [3]; over 100 µM in test [4]; over 100 µM in [5]; over 100 µM in [6]. Besides, the TGI was over 100 µM in test [7], over 96.7 µM in test [8], over 100 µM in [9] and 56.2 µM in test [10].

For `COc1ncc(Nc2ncc([C@@H](C)N3CCN(S(C)(=O)=O)CC3)cc2-c2nc(C)nc(N)n2)cc1F`, the GI50 was 0.211 µM in test [1]; 0.0214 µM in test [2]; under 0.01 µM in [3]; 3.86 µM in test [4]; 0.135 µM in [5]; 0.0468 µM in test [6]. Further, the GI50 in test [7] is under 0.0139 µM; in [8] it was 0.0287 µM; in test [9], 2.09 µM; in test [10], 0.0171 µM. For the same compound, the TGI is over 100 µM in [1]; over 57.3 µM in [2]; 1.19 µM in [3]; over 100 µM in [4]; over 100 µM in [5]; 11.2 µM in test [6]. In addition, the TGI in [7] is over 100 µM; in [8], 1.85 µM; in [9] it was 9.04 µM; in [10], 0.394 µM.

As to `COc1ccc(/C(COc2ccc3oc(-c4ccccc4)cc(=O)c3c2)=N\O)cc1`, the GI50 in test [1] is 0.145 µM; in test [3] it was over 31.2 µM; in test [4], 0.189 µM; in test [5], 0.0882 µM; in test [6], under 0.005 µM; in test [7], 0.202 µM. For the same compound, the values for the GI50 in test [8], in test [9] and in test [10] were under 0.005 µM, 0.93 µM and 0.747 µM, respectively. Also, the TGI in test [1] was 0.983 µM; in test [2] it was over 23.2 µM; in test [3], over 50 µM; in [4], 9.75 µM; in [5], over 16.3 µM; in [6], 0.0538 µM. Also, the TGI is over 19.2 µM in [7], 0.154 µM in [8], 7.98 µM in [9] and over 33.5 µM in [10].

Consider `COc1ccc(CN2c3ccccc3Sc3ccccc32)c(C(F)(F)F)c1`, for which the GI50 in [1] was 2 µM; in [2] it was 0.412 µM; in test [3], 0.227 µM; in test [4], 1.03 µM; in [5], 0.456 µM; in test [6], 0.513 µM. Moreover, the GI50 was 0.546 µM in test [7], 0.32 µM in test [8], 0.5 µM in test [9] and 0.557 µM in [10]. For the same compound, the TGI was 10.3 µM in test [1]; 13.9 µM in test [2]; 44.9 µM in test [3]; 93.4 µM in test [4]; over 100 µM in test [5]; 24.3 µM in test [6]. Moreover, the TGI in test [7] is over 100 µM; in test [8], 2.67 µM; in test [9], 15.7 µM; in test [10] it was over 100 µM.

In the case of `O=C(Nc1cccc(O)c1)c1ccc(NC2=C(Cl)C(=O)N(Cc3ccc(Cl)cc3Cl)C2=O)cc1`, the GI50 in [1] was 18.9 µM; in test [3], 1.86 µM; in [4], 19.6 µM; in [5], 2.86 µM; in test [6] it was 1.66 µM; in test [7], 1.75 µM. Besides, the results for the GI50 in [8], in test [9] and in test [10] were 1.95 µM, 4.71 µM and 4.6 µM, respectively. Besides, the TGI in test [1] worked out at 33.8 µM; in [2], 3.75 µM; in [3], 4.16 µM; in test [4], 36.1 µM; in test [5], 8.91 µM; in test [6] it was 3.45 µM. Moreover, the TGI in test [7] was found to be 4.28 µM; in [8], 4.07 µM; in [9] it was 9.73 µM; in test [10], 14.7 µM.

As for `Cc1ccccc1NC(=O)c1sc2nc(C)c(C(=O)/C=C/c3ccccc3)cc2c1N`, the GI50 in [1] is 0.913 µM; in [2], 0.922 µM; in test [3] it was 1.48 µM; in [4] it was 1.21 µM; in test [5], 1.25 µM; in test [6], 1 µM. For the same compound, the GI50 in test [7] is 1.33 µM; in test [8], 2.43 µM; in test [9] it was 1.11 µM; in [10], 2.5 µM. For the same compound, the TGI in test [1] is 1.67 µM; in test [2] it was 2.72 µM; in test [3], 7.26 µM; in test [4] it was 3.16 µM; in test [5], 3.22 µM; in test [6] it was 2.12 µM. Further, the TGI in test [7] is 3.77 µM; in test [8], 16.8 µM; in test [9] it was 2.71 µM; in test [10], 25.9 µM.

With `NCCCC[C@@H]1NC(=O)[C@H](CC(=O)O)NC(=O)CNC(=O)[C@H](CCCN=C(N)N)NC(=O)[C@@H](N)CSSC[C@@H](C(=O)O)NC(=O)[C@H](CC(=O)O)NC(=O)[C@@H]2CCCN2C(=O)CNC1=O`, the GI50 in test [1], in [2], in test [3], in test [4], in test [5] and in [6] was over 100 µM in each case. Moreover, the GI50 in test [7], in [8], in [9] and in [10] was over 100 µM throughout. Moreover, the TGI in test [1], in [2], in test [3], in [4], in test [5] and in test [6] was over 100 µM in each case. The TGI in test [7], in test [8], in test [9] and in [10] was over 100 µM throughout.

Take `CC1C(C)N(C(=O)CCl)c2ccccc2N1C(=O)CCl` (stereo not drawn): the GI50 in test [1] was 1.69 µM; in test [2], 0.211 µM; in test [3], 0.709 µM; in test [4], 0.705 µM; in [5], 1.74 µM; in test [6], 0.194 µM. Besides, the GI50 in test [7] is 1.19 µM; in test [8] it was 1.45 µM; in test [9] it was 1.27 µM; in [10], 1.58 µM. Further, the TGI in [1] was found to be 3.23 µM; in test [2], 0.535 µM; in [3], 1.84 µM; in test [4], 2.68 µM; in test [5] it was 3.98 µM; in test [6], 0.428 µM. Also, the TGI in test [7] was 2.85 µM; in [8], 3.06 µM; in test [9] it was 2.85 µM; in test [10], 3 µM.

With `CCOC(=O)Oc1cc2c(c(OC)c1OC)-c1ccc(OC)c(=O)cc1C(NC(C)=O)CC2` (stereo not drawn), the TGI amounted to 0.683 µM in test [1]; 0.0298 µM in test [2]; 28.7 µM in test [3]; 8.82 µM in [4]; 6.67 µM in test [5]; 0.135 µM in [6]. The TGI in [7] was over 100 µM; in test [8], 3.09 µM; in test [9] it was 0.14 µM; in [10] it was 98.1 µM.
